In patent US20180258064A1, “SOLID FORMS OF 3-(5-AMINO-2-METHYL-4-OXO-4H-QUINAZOLIN-3-YL)-PIPERIDINE-2,6-DIONE, AND THEIR PHARMACEUTICAL COMPOSITIONS AND USES” (Celgene Corporation, priority 2017, published 2018):
Structures can show the parent of a compound that is named as a salt.

Legend:
[1] = Dynamic Vapor Sorption (DVS); type: physicochemical; conditions: for DVS weight gain from 5 to 95% RH / DVS weight loss from 95 to 5% RH / DVS weight loss upon drying at 5% RH: 25° C.; for DVS weight gain from 5 to 95% RH: adsorption cycle 5 to 95% RH; for DVS weight loss from 95 to 5% RH: desorption cycle 95 to 5% RH
Experimental: DVS analysis was carried out using a TA Instruments Q5000 Dynamic Vapor Sorption analyzer. The instrument was calibrated with standard weights and a sodium bromide standard for humidity. Approximately 10-25 mg of sample was loaded into a metalcoated quartz pan for analysis. The sample was analyzed at 25° C. with a maximum equilibration time of one hour in 10% relative humidity (RH) steps from 5 to 95% RH (adsorption cycle) and from 95 to 5% RH (desorption cycle). The movement from one step to the next occurred either after satisfying the equilibrium criterion of 0.01% weight change or, if the equilibrium criterion was not met, after one hour. The percent weight change values were calculated using Microsoft Excel®.

[2] = Post-DVS XRPD (solid form after the DVS cycle); type: physicochemical; conditions: XRPD pattern after DVS
Text: The Rigaku Smart-Lab X-ray diffraction system was configured for reflection Bragg-Brentano geometry using a line source X-ray beam. The x-ray source is a Cu Long Fine Focus tube that was operated at 40 kV and 44 mA. That source provides an incident beam profile at the sample that changes from a narrow line at high angles to a broad rectangle at low angles. Beam conditioning slits are used on the line X-ray source to ensure that the maximum beam size is less than 10 mm both along the line and normal to the line. The Bragg-Brentano geometry is a para-focusing geometry controlled by passive divergence and receiving slits with the sample itself acting as the focusing component for the optics. The inherent resolution of Bragg-Brentano geometry is governed in part by the diffractometer radius and the width of the receiving slit used. Typically, the Rigaku Smart-Lab is operated to give peak widths of 0.1° 2θ or less. The axial divergence of the X-ray beam is controlled by 5.0° Soller slits in both the incident and diffracted beam paths. Powder samples were prepared in a low background Si holder using light manual pressure to keep the sample surfaces flat and level with the reference surface of the sample holder. Each sample was analyzed from 2 to 40° 2θ using a continuous scan of 6° 2θ per minute with an effective step size of 0.02° 2θ. DVS analysis was carried out using a TA Instruments Q5000 Dynamic Vapor Sorption analyzer. The instrument was calibrated with standard weights and a sodium bromide standard for humidity. Approximately 10-25 mg of sample was loaded into a metalcoated quartz pan for analysis. The sample was analyzed at 25° C. with a maximum equilibration time of one hour in 10% relative humidity (RH) steps from 5 to 95% RH (adsorption cycle) and from 95 to 5% RH (desorption cycle). The movement from one step to the next occurred either after satisfying the equilibrium criterion of 0.01% weight change or, if the equilibrium criterion was not met, after one hour. The percent weight change values were calculated using Microsoft Excel®.

[3] = listed as Form A of the sulfate salt of Compound 1
[4] = listed as Form A of the mesylate salt of Compound 1
[5] = listed as Form A of the besylate salt of Compound 1
[6] = listed as Form A of the tosylate salt of Compound 1

SMILES: Cc1nc2cccc(N)c2c(=O)n1C1CCC(=O)NC1=O (centres unmarked) [Compound 1 sulfate salt Form A, 3-(5-amino-2-methyl-4-oxo-4H-quinazolin-3-yl)-piperidine-2,6-dione]
- DVS weight gain from 5 to 95% RH [1, 3]: about 5.36%
- DVS weight gain from 5 to 95% RH ([1]; listed as Sulfate Form A): 5.36% gain from 5 to 95% RH
- DVS weight loss from 95 to 5% RH [1, 3]: about 5.63%
- DVS weight loss from 95 to 5% RH ([1]; listed as Sulfate Form A): 5.63% loss from 95 to 5% RH
- DVS weight loss upon drying at 5% RH ([1]; listed as Sulfate Form A): 0.21% loss on drying at 5% RH
- Post-DVS XRPD [2]: unchanged
- Post-DVS XRPD ([2]; listed as Sulfate Form A): Unchanged

SMILES: Cc1nc2cccc(N)c2c(=O)n1C1CCC(=O)NC1=O (centres unmarked) [Compound 1 mesylate salt Form A, 3-(5-amino-2-methyl-4-oxo-4H-quinazolin-3-yl)-piperidine-2,6-dione]
- DVS weight gain from 5 to 95% RH [1, 4]: about 9.79%
- DVS weight gain from 5 to 95% RH ([1]; listed as Mesylate Form A): 9.79% gain from 5 to 95% RH
- DVS weight loss from 95 to 5% RH [1, 4]: about 7.98%
- DVS weight loss from 95 to 5% RH ([1]; listed as Mesylate Form A): 7.98% loss from 95 to 5% RH
- DVS weight loss upon drying at 5% RH ([1]; listed as Mesylate Form A): 0.17% loss upon drying at 5% RH
- Post-DVS XRPD ([2]; listed as Mesylate Form A): Mesylate Form B

SMILES: Cc1nc2cccc(N)c2c(=O)n1C1CCC(=O)NC1=O (centres unmarked) [Compound 1 besylate salt Form A, 3-(5-amino-2-methyl-4-oxo-4H-quinazolin-3-yl)-piperidine-2,6-dione]
- DVS weight gain from 5 to 95% RH ([1]; listed as Besylate Form A): 4.31% gain from 5 to 95% RH
- DVS weight gain from 5 to 95% RH [1, 5]: about 4.31%
- DVS weight loss from 95 to 5% RH ([1]; listed as Besylate Form A): 4.31% loss from 95 to 5% RH
- DVS weight loss from 95 to 5% RH [1, 5]: about 4.31%
- DVS weight loss upon drying at 5% RH ([1]; listed as Besylate Form A): 0.16% loss upon drying at 5% RH
- hygroscopicity ([1]; wording in text, based on DVS): moderately hygroscopic
- Post-DVS XRPD ([2]; listed as Besylate Form A): Unchanged

SMILES: Cc1nc2cccc(N)c2c(=O)n1C1CCC(=O)NC1=O (centres unmarked) [Compound 1 tosylate salt Form A, 3-(5-amino-2-methyl-4-oxo-4H-quinazolin-3-yl)-piperidine-2,6-dione]
- DVS weight gain from 5 to 95% RH [1, 6]: about 1.15%
- DVS weight gain from 5 to 95% RH ([1]; listed as Tosylate Form A): 1.15% gain from 5 to 95% RH
- DVS weight loss from 95 to 5% RH [1, 6]: about 1.17%
- DVS weight loss from 95 to 5% RH ([1]; listed as Tosylate Form A): 1.17% loss from 95 to 5% RH
- DVS weight loss upon drying at 5% RH ([1]; listed as Tosylate Form A): 0.14% loss upon drying at 5%
- Post-DVS XRPD ([2]; listed as Tosylate Form A): Tosylate form B
